Data: patent US12697315B2, “Treatment for interstitial lung disease” (United Therapeutics Corporation, priority 2020, dated 2026)

Key:
[1] = tested on: patients with interstitial lung disease and pulmonary hypertension; experiment: Pulmonary function tests (FVC, FEV1, TLC, DLCO), mixed model repeated measurement, INCREASE; assay type: in vivo, human
Method: Subjects having underlying lung disease were treated with inhaled treprostinil over 16 weeks. Subjects initiated inhaled treprostinil or placebo at a dose of 3 breaths (18 mcg) 4 times daily (during waking hours). Study drug doses were maximized throughout the study. Dose escalations (additional 1 breath 4 times daily) could occur up to every 3 days with a target dosing regimen of 9 breaths (54 mcg) 4 times daily and a maximum dose of 12 breaths (72 mcg) 4 times daily, as clinically tolerated. Subjects were assessed during Screening and Baseline to determine eligibility for the study. Once eligible, 5 Treatment Phase visits to the clinic were required at Week 4, Week 8, Week 12, Week 15, and Week 16 (final study visit). An Early Termination (ET) Visit was conducted for subjects who discontinued prior to Week 16; all assessments planned for the final Week 16 Visit were conducted during the ET Visit, if applicable. Subjects were contacted at least weekly by telephone or email to assess tolerance to study drug, adverse events (AEs), and changes to concomitant medications.
Pulmonary function testing was initially conducted as a safety assessment (Safety Population) during the study. […] As a result, post hoc MMRM analyses of FVC data were performed for the ITT Population and are presented in Table 1 (ITT Population), Table 2 (by PH ILD Etiology of IIP) and Table 3 (for subjects with IPF), shown below.
The 6-minute walk test was performed and laboratory data were obtained at baseline and at weeks 4, 8, 12, and 16, or at the time of early discontinuation of treprostinil or placebo. Each 6-minute walk test was performed 10 to 60 minutes after the most recent dose of active drug or placebo, which is the time of peak plasma treprostinil exposure. A trough test was performed at week 15 at least 4 hours after the participant received a dose of treprostinil or placebo and at least 24 hours before the week 16 test. Pulse oximetry was performed immediately before, during, and after each 6-minute walk test. Measurement of N-terminal pro-B-type natriuretic peptide (NT-proBNP) levels and pulmonary function tests were performed at baseline and at weeks 8 and 16 (or at early discontinuation) after the patients recovered from the 6-minute walk test. The St. George's Respiratory Questionnaire (SGRQ), a quality-of-life measure, was completed at baseline and week 16 or at the time of early discontinuation.
LS Mean (SE); P-values; estimated difference (SE); and associated 95% CIs are from the mixed model repeated measurement with the change from Baseline in pulmonary function test parameter as the dependent variable; treatment, week, treatment by week interaction as the fixed effects; Baseline measurement as the covariate; and subject as the random effect. An unstructured variance/covariance structure shared across treatment groups was used to model the within-subject errors.

[2] = tested on: patients with interstitial lung disease and pulmonary hypertension; experiment: Distance saturation product, INCREASE; assay type: in vivo, human
Method: Change in distance saturation product is the product of distance walked and lowest SpO2 recorded during the 6-minute walk test.^7 Change from baseline to Week 16 in distance saturation product was analyzed by parametric ANCOVA with no imputation for missing distance saturation product values.

[3] = Week 8, subjects with IPF, listed as inhaled treprostinil
[4] = Week 16, subjects with IPF, listed as inhaled treprostinil

CCCCC[C@H](O)CC[C@@H]1[C@H]2Cc3cccc(OCC(=O)O)c3C[C@H]2C[C@H]1O [Inhaled treprostinil, treprostinil]
effect on any pulmonary function test variable during the trial ([1]; 16-week trial): no deleterious effect
FVC (% predicted), Estimated Difference Inhaled treprostinil - Placebo ([1]; Week 8, ITT Population, MMRM): 1.79 % predicted
FVC (% predicted), LS Mean change from baseline ([1]; Week 8, ITT Population, MMRM): 0.77 % predicted
FVC (mL), Estimated Difference Inhaled treprostinil - Placebo ([1]; Week 8, ITT Population, MMRM): 28.47 mL
FVC (mL), LS Mean change from baseline ([1]; Week 8, ITT Population, MMRM): 5.49 mL
DLCO (% predicted), Estimated Difference Inhaled treprostinil − Placebo ([1]; Week 8, MMRM): 1.07 % predicted
DLCO (% predicted), LS Mean change from Baseline ([1]; Week 8, MMRM): −0.13 % predicted
DLCO (mL/min/mmHg), Estimated Difference Inhaled treprostinil − Placebo ([1]; Week 8, MMRM): 0.19 mL/min/mmHg
DLCO (mL/min/mmHg), LS Mean change from Baseline ([1]; Week 8, MMRM): −0.27 mL/min/mmHg
FEV1 (% predicted), Estimated Difference Inhaled treprostinil − Placebo ([1]; Week 8, MMRM): 0.57 % predicted
FEV1 (% predicted), LS Mean change from Baseline ([1]; Week 8, MMRM): −0.18 % predicted
FEV1 (mL), Estimated Difference Inhaled treprostinil − Placebo ([1]; Week 8, MMRM): -8.95 mL
FEV1 (mL), LS Mean change from Baseline ([1]; Week 8, MMRM): -21.34 mL
TLC (% predicted), Estimated Difference Inhaled treprostinil − Placebo ([1]; Week 8, MMRM): 0.28 % predicted
TLC (% predicted), LS Mean change from Baseline ([1]; Week 8, MMRM): −0.05 % predicted
TLC (mL), Estimated Difference Inhaled treprostinil − Placebo ([1]; Week 8, MMRM): -16.23 mL
TLC (mL), LS Mean change from Baseline ([1]; Week 8, MMRM): -38.75 mL
FVC (% predicted), Estimated Difference Inhaled treprostinil - Placebo ([1]; Week 8, PH-ILD etiology IIP): 1.95 % predicted
FVC (% predicted), LS Mean change from baseline ([1]; Week 8, PH-ILD etiology IIP): 0.92 % predicted
FVC (mL), Estimated Difference Inhaled treprostinil - Placebo ([1]; Week 8, PH-ILD etiology IIP): 46.48 mL
FVC (mL), LS Mean change from baseline ([1]; Week 8, PH-ILD etiology IIP): 9.27 mL
FVC (% predicted), Estimated Difference Inhaled treprostinil - Placebo ([1]; Week 8, subjects with IPF): 2.543 % predicted
FVC (% predicted), LS Mean change from baseline ([1]; Week 8, subjects with IPF): 1.60 % predicted
FVC (mL), Estimated Difference Inhaled treprostinil - Placebo ([1]; Week 8, subjects with IPF): 84.522 mL
FVC (mL), LS Mean change from baseline ([1]; Week 8, subjects with IPF): 41.69 mL
FVC (% predicted), Estimated Difference Inhaled treprostinil - Placebo [1, 3]: 2.54 % predicted
FVC (mL), Estimated Difference Inhaled treprostinil - Placebo [1, 3]: 84.52 mL
FVC (% predicted), Estimated Difference Inhaled treprostinil - Placebo ([1]; Week 16, ITT Population, MMRM): 1.80 % predicted
FVC (% predicted), LS Mean change from baseline ([1]; Week 16, ITT Population, MMRM): 1.07 % predicted
FVC (mL), Estimated Difference Inhaled treprostinil - Placebo ([1]; Week 16, ITT Population, MMRM): 44.40 mL
FVC (mL), LS Mean change from baseline ([1]; Week 16, ITT Population, MMRM): 9.77 mL
DLCO (% predicted), Estimated Difference Inhaled treprostinil − Placebo ([1]; Week 16, MMRM): 0.60 % predicted
DLCO (% predicted), LS Mean change from Baseline ([1]; Week 16, MMRM): −1.14 % predicted
DLCO (mL/min/mmHg), Estimated Difference Inhaled treprostinil − Placebo ([1]; Week 16, MMRM): 0.02 mL/min/mmHg
DLCO (mL/min/mmHg), LS Mean change from Baseline ([1]; Week 16, MMRM): −0.61 mL/min/mmHg
FEV1 (% predicted), Estimated Difference Inhaled treprostinil − Placebo ([1]; Week 16, MMRM): 0.38 % predicted
FEV1 (% predicted), LS Mean change from Baseline ([1]; Week 16, MMRM): −0.24 % predicted
FEV1 (mL), Estimated Difference Inhaled treprostinil − Placebo ([1]; Week 16, MMRM): -2.56 mL
FEV1 (mL), LS Mean change from Baseline ([1]; Week 16, MMRM): -32.18 mL
TLC (% predicted), Estimated Difference Inhaled treprostinil − Placebo ([1]; Week 16, MMRM): 1.49 % predicted
TLC (% predicted), LS Mean change from Baseline ([1]; Week 16, MMRM): 2.52 % predicted
TLC (mL), Estimated Difference Inhaled treprostinil − Placebo ([1]; Week 16, MMRM): 17.37 mL
TLC (mL), LS Mean change from Baseline ([1]; Week 16, MMRM): 45.43 mL
FVC (% predicted), Estimated Difference Inhaled treprostinil - Placebo ([1]; Week 16, PH-ILD etiology IIP): 2.88 % predicted
FVC (% predicted), LS Mean change from baseline ([1]; Week 16, PH-ILD etiology IIP): 1.66 % predicted
FVC (mL), Estimated Difference Inhaled treprostinil - Placebo ([1]; Week 16, PH-ILD etiology IIP): 108.18 mL
FVC (mL), LS Mean change from baseline ([1]; Week 16, PH-ILD etiology IIP): 22.16 mL
FVC (% predicted), median improvement ([1]; Week 16, Safety Population): 1.0%
FVC (% predicted), Estimated Difference Inhaled treprostinil - Placebo ([1]; Week 16, subjects with IPF): 3.504 % predicted
FVC (% predicted), LS Mean change from baseline ([1]; Week 16, subjects with IPF): 1.62 % predicted
FVC (mL), Estimated Difference Inhaled treprostinil - Placebo ([1]; Week 16, subjects with IPF): 168.524 mL
FVC (mL), LS Mean change from baseline ([1]; Week 16, subjects with IPF): 38.24 mL
FVC (% predicted), Estimated Difference Inhaled treprostinil - Placebo [1, 4]: 3.50 % predicted
FVC (mL), Estimated Difference Inhaled treprostinil - Placebo [1, 4]: 168.52 mL
Distance saturation product, Week 16 Change from Baseline, LS Mean (SE) ([2]; ANCOVA): 7.2 (4.5) m %
Distance saturation product, Week 16 Change from Baseline, Mean (SD) ([2]; n 118): 7.607 (45.680) m %
Distance saturation product, Week 16 Change from Baseline, Median ([2]; n 118): 8.385 m %
Distance saturation product, LS Mean Difference (SE) ([2]; week 16, vs placebo): 11.51 (6.5), 95% CI (−1.33, 24.35) m %
between-group difference in the distance-saturation product ([2]; week 16, vs placebo): no significant between-group difference
